The test system of experiment [1] is BV-2. The experiment can be described thus: Inhibition of NO production in LPS-stimulated mouse BV2 cells assessed as nitrite accumulation after 20 hrs by Griess reagent method. The settings on record: BV-2, 20 h. The experiment is classed as functional, cell-based. On the technique in general: Nitrite, measured by Griess reagent, commonly stands in for NO production.

Experiment [2] can be described thus: Inhibition of NOS.

The IC50 is the concentration that gives 50% inhibition. Consider `COc1cc([C@H]2OC[C@H]3[C@@H]2CO[C@@H]3c2cc(OC)c(OC)c(OC)c2)cc(OC)c1OC`, for which, in experiment [1], the concentration for half-maximal inhibition (IC50) amounted to 28.6 µM. Turning to `COc1ccc([C@H]2OC[C@H]3[C@@H]2CO[C@@H]3c2cc(OC)c(OC)c(OC)c2)cc1OC`, the IC50 in experiment [1] is 20.5 µM. For the compound `COc1ccc([C@H]2OC[C@H]3[C@@H]2CO[C@@H]3c2ccc(OC)c(OC)c2)cc1OC` [(+)-EUDESMIN], in experiment [1], the IC50 amounted to 30 µM. For the compound `CNC(=N)NCCC[C@H](N)C(=O)O` [TILARGININE], half-maximal inhibition in experiment [2] (IC50) required 19.2 µM.

The values above are taken from ChEMBL document CHEMBL1143290, “In vitro anti-inflammatory activity of lignans isolated from Magnolia fargesii” (Bioorg Med Chem Lett, 2009).
